Measurements published in patent US9284307B2, “Macrocyclic serine protease inhibitors” (Idenix Pharmaceuticals LLC, priority 2009, dated 2016).

Experiments:
HCV NS3-NS4A protease = molecular target: T1, HCV NS3-NS4A protease (Hepatitis C virus genotype 1b, UniProt Q9WMX2); assay: HCV protease assay (SensoLyte 620 HCV Protease Assay kit); format: biochemical; settings: 1.2 nM HCV NS3-NS4A protease, 60 min at room temperature
T1 construct: using 1.2 nM HCV NS3-NS4A protease, which was obtained according to Taremi et al; made in house
Description: Measurement of the inhibitory effect of compounds on HCV protease activity was performed with the SensoLyte™ 620 HCV Protease Assay kit from AnaSpec, Inc. (San Jose, Calif.) under conditions described by the supplier using 1.2 nM HCV NS3-NS4A protease, which was obtained according to Taremi et al. (Protein Science, 1998, 7, 2143-2149). The compounds were tested at a variety of concentrations in assay buffer containing a final DMSO concentration of 5%. Reactions were allowed to proceed for 60 min at room temperature and fluorescence measurements were recorded with a Tecan Infinity Spectrofluorimeter. The IC50 values were determined from the percent inhibition versus concentration data using a sigmoidal non-linear regression analysis based on four parameters with Tecan Magellan software.

[1] = tested on: HCV Con1 subgenomic replicon in Huh-7 cells (GS4.1 cells); assay: HCV replicon assay (NS4A ELISA, GS4.1 cells); format: cell-based; settings: Hepatitis C virus, 72 hr
Description: Huh-7 cells containing HCV Con1 subgenomic replicon (GS4.1 cells) were grown in Dulbecco's Modified Eagle Medium (DMEM) supplemented with 10% fetal bovine serum (FBS), 2 mM L-glutamine, 110 mg/L sodium pyruvate, 1× non-essential amino acids, 100 U/mL penicillin-streptomycin, and 0.5 mg/mL G418 (Invitrogen). For dose-response testing, the cells were seeded in 96-well plates at 7.5×10^3 cells/well in a volume of 50 μL, and incubated at 37° C./5% CO2. Three hours after plating, 50 μL of ten 2-fold serial dilutions of compounds (highest concentration, 75 μM) were added, and cell cultures were incubated at 37° C./5% CO2 in the presence of 0.5% DMSO. Alternatively, compounds were tested at a single concentration of 15 μM. In all cases, Huh-7 cells lacking the HCV replicon served as negative control. The cells were incubated in the presence of compounds for 72 hr after which they were monitored for expression of the NS4A protein by enzyme-linked immunosorbent assay (ELISA). […] The reaction was stopped after 30 min with 2 N H2SO4, and absorbance was read at 492 nm using Sunrise Tecan spectrophotometer. EC50 values were determined from the % inhibition versus concentration data using a sigmoidal non-linear regression analysis based on four parameters with Tecan Magellan software.

in vitro = format: cell-based; settings: human
Description: For cytotoxicity evaluation, GS4.1 cells were treated with compounds as described above and cellular viability was monitored using the Cell Titer 96 AQueous One Solution Cell Proliferation Assay (Promega). CC50 values were determined from the % cytotoxicity versus concentration data with Tecan Magellan software as described above.

HCV NS3-NS4A protease 1a = molecular target: T2, HCV NS3-NS4A protease 1a (Hepatitis C virus genotype 1a, UniProt P27958); assay: HCV protease assay (HiLyte Fluor TR/QXL 610 FRET peptide), genotype 1a; format: biochemical; settings: 2-3 nM protease, 60 min at 30° C., read-out: IC50 Against HS3/4A 1a
T2 construct: using 2-3 nM HCV NS3-NS4A protease, which was produced according to the method of Taremi et al; made in house
Description: (§1) Measurement of the inhibitory effect of compounds on HCV protease activity was performed using the HiLyte Fluor™ TR/QXL™ 610 FRET peptide from AnaSpec, Inc. (San Jose, Calif.) under conditions developed in-house using 2-3 nM HCV NS3-NS4A protease, which was produced according to the method of Taremi et al. (Protein Science, 1998, 7, 2143-2149). The compounds were tested at a variety of concentrations in assay buffer containing a final DMSO concentration of 5%. Reactions were allowed to proceed for 60 min at 30° C. and fluorescence measurements were recorded with a PerkinElmer Victor^3 V 1420 Multilabel Counter. The IC50 values were determined from the percent inhibition versus concentration data using a sigmoidal non-linear regression analysis based on four parameters with XLfit 4.1 software.

HCV NS3-NS4A protease 2a = molecular target: T3, HCV NS3-NS4A protease 2a (Hepatitis C virus genotype 2a, UniProt Q99IB8); assay: HCV protease assay (HiLyte Fluor TR/QXL 610 FRET peptide), genotype 2a; format: biochemical; settings: 2-3 nM protease, 60 min at 30° C., read-out: IC50 Against HS3/4A 2a
T3 construct: using 2-3 nM HCV NS3-NS4A protease, which was produced according to the method of Taremi et al; made in house
Description: as §1

[2] = tested on: HCV luciferase-bearing wild-type replicon in cured GS4.1 cells; assay: Luciferase replicon transient transfection assay, wild-type replicon; format: cell-based
Description: (§2) The luciferase replicon transient transfection assay measures the ability of a test compound to inhibit the replication of a transiently-transfected HCV luciferase-bearing wild-type or mutant replicon in cured human hepatoma cells (cured GS4.1). The mutant replicons bear a specific single-site mutation in NS3 that is known to confer resistance to protease inhibitors currently in development. The inhibition of HCV replication was measured by quantification of luciferase protein expression. This assay has been validated using a panel of replicons bearing known protease inhibitor resistance mutations and their respective reference compounds. Briefly, subconfluent cured GS4.1 cells in OptiBuffer (ThermoElectron Corp.) were electroporated with 40 μg of wild-type or mutant luciferase-bearing HCV replicon RNA. The cells were then seeded in 96-well opaque white plates at 2.4×10^4 cells/well in 150 μL/well and incubated for 4 hours at 37° C./5% CO2. […] The plates were agitated on a rotating platform at room temperature for 3 minutes and read in a Victor^3V microplate reader (Perkin-Elmer) using a 700 nm cut-off filter with a 1 second read time. EC50 values were calculated from dose response curves from the resulting best-fit equations determined by Microsoft Excel and XLfit 4.1 software.

[3] = tested on: HCV luciferase-bearing mutant replicon, NS3 A156T, in cured GS4.1 cells; assay: Luciferase replicon transient transfection assay, A156T mutant replicon; format: cell-based
Description: as §2

## COc1ccc2c(O[C@H]3CC[C@H]4C(=O)N(C)CCCC/C=C\[C@@H]5C[C@@]5(C(=O)NS(=O)(=O)C5(C)CC5)NC(=O)[C@@H]4C3)cc(-c3nc(C(F)(F)F)cs3)nc2c1C [Compound 51]
HCV NS3-NS4A protease
  IC50: < 1000 nM
[1]
  EC50: < 1000 nM
In vitro
  CC50: 10000 to 75000 nM
HCV NS3-NS4A protease 1a
  IC50: < 1000 nM
HCV NS3-NS4A protease 2a
  IC50: < 1000 nM
[2]; EC50 fold change, wild-type replicon
  Fold Change, Wild Type replicon: 1
[2]; Hepatitis C virus, 96 h, read-out: EC50(nm), Wild Type replicon
  EC50: 0.35 to 1.1 nM
[3]; EC50 fold change, A156T replicon
  Fold Change, A156T replicon: 20-95
[3]; Hepatitis C virus, 96 h, read-out: EC50(nm), A156T replicon
  EC50: 25 to 40 nM
